From PMC10619443, “Structural snapshots of Mycobacterium tuberculosis enolase reveal dual mode of 2PG binding and its implication in enzyme catalysis” (IUCrJ, 2023)

Target: T1, MtEno (Mycobacterium tuberculosis, UniProt P9WNL1)
T1 construct: gene eno
T1 sequence (P9WNL1 whole entry): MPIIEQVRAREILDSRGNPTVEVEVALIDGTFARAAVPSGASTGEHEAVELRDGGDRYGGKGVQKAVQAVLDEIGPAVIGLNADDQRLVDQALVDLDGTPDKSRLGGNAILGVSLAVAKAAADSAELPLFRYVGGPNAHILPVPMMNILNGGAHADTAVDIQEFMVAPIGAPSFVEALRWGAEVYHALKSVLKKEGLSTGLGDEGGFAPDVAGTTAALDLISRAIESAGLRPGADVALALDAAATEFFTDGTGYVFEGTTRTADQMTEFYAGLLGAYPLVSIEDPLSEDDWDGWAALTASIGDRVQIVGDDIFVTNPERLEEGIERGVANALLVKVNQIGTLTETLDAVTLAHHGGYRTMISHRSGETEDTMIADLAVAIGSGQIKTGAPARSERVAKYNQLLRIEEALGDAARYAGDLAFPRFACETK

Structure (SMILES): O=C(O)[C@@H](CO)OP(=O)(O)O [2PG, 2-phosphoglycerate]
- X-ray crystal structure: Of the two structures of MtEno-2PG, one harbored the 2PG-canonical pose
